Reference: patent US20100204182A1, “ECTONUCLEOTIDASE INHIBITORS” (RHEINISCHE FRIEDRICH-WILHELMS-UNIVERSITAT BONN, priority 2006, published 2010)

Assays:
[1] = molecular target: T1, human NTPDase1 (Homo sapiens, UniProt P49961); assay: NTPDase inhibition assay by capillary electrophoresis (CE), NTPDase1; type: biochemical; settings: CE method, ATP 320 μM, Km 17 μM, read-out: NTPDase1 Ki [μM] ± SEM
T1 sequence (P49961 1-510): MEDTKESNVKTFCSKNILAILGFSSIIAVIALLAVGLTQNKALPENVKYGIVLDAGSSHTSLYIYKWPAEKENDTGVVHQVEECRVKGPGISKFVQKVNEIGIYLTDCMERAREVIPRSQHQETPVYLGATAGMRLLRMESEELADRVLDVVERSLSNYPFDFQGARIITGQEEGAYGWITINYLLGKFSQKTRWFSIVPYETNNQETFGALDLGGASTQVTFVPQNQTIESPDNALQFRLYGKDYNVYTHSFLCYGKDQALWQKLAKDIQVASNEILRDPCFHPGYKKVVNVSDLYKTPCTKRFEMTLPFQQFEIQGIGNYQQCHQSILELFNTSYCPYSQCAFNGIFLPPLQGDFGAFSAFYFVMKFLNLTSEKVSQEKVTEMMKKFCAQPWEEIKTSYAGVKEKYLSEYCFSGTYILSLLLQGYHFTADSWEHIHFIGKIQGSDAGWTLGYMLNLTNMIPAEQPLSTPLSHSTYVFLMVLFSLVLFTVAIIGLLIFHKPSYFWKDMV
Method: The applied enzyme inhibition assay has been described (Iqbal J, Vollmayer P, Braun N, Zimmermann H, Müller C E. A capillary electrophoresis method for the characterization of ecto-nucleoside triphosphate diphosphohydrolases (NTPDases) and the analysis of inhibitors by in-capillary enzymatic microreaction. Purinergic Signalling 2005, 1, 349-358).
A. CE instrumentation: All experiments were carried out using a P/ACE MDQ capillary electrophoresis system (Beckman Instruments, Fullerton, Calif., USA) equipped with a UV detection system coupled with a diode-array detector (DAD). Data collection and peak area analysis were performed by the P/ACE MDQ software 32 KARAT obtained from Beckman Coulter. The capillary temperature was kept constant at 25° C. The temperature of the sample storing unit was also adjusted to 25° C. The electrophoretic separations were carried out using an eCAP polyacrylamide-coated fused-silica capillary [(30 cm (20 cm effective length)×50 μm internal diameter (I.D.)×360 μm outside diameter (O.D.), obtained from CS-Chromatographie (Langerwehe, Germany)]. The separation was performed using an applied current of −60 μA and a data acquisition rate of 8 Hz. Analytes were detected using direct UV absorbance at 210 nm. The capillary was conditioned by rinsing with water for 2 min and subsequently with buffer (phosphate 50 mM, pH 6.5) for 1 min. Sample injections were made at the cathodic side of the capillary.
B. NTPDase inhibition assay by capillary electrophoresis: Enzyme inhibition assays were carried out at 37° C. in a final volume of 100 μl. The reaction mixture contained 320 μM of ATP (substrate) in reaction buffer. The reaction buffer contained 140 mM NaCl, 5 mM KCl, 1 mM MgCl2, 2 mM CaCl2, and 10 mM Hepes, pH 7.4.
Different concentrations of inhibitors dissolved in DMSO or water (10 μl) were added and the reaction was initiated by the addition of 10 μl of the appropriately diluted recombinant or native human or rat NTPDase enzyme. […] The mixture (final volume 100 μl) was incubated for 15 min and terminated by heating at 99° C. for 4 min. Aliquots of the reaction mixture (50 μl) were then transferred to mini-CE vials and injected into the CE instrument under the conditions described above. 20 μM of UMP was used as internal standard. Inhibition of NTPDase was tested over a range of 6 to 8 concentrations of test compound spanning 3 orders of magnitude to determine K1 values. Each analysis was repeated two times (in triplicates) in two separate experiments. The Cheng-Prusoff equation was used to calculate the K1 values from the IC50 values, determined by the non-linear curve fitting program PRISM® 3.0 (GraphPad, San Diego, Calif., USA). In table 1K, values of selected compounds as inhibitors of human NTPDases are given.

[2] = molecular target: T2, human NTPDase2 (Homo sapiens, UniProt Q9Y5L3); assay: NTPDase inhibition assay by capillary electrophoresis (CE), NTPDase2; type: biochemical
T2 sequence (Q9Y5L3 1-495): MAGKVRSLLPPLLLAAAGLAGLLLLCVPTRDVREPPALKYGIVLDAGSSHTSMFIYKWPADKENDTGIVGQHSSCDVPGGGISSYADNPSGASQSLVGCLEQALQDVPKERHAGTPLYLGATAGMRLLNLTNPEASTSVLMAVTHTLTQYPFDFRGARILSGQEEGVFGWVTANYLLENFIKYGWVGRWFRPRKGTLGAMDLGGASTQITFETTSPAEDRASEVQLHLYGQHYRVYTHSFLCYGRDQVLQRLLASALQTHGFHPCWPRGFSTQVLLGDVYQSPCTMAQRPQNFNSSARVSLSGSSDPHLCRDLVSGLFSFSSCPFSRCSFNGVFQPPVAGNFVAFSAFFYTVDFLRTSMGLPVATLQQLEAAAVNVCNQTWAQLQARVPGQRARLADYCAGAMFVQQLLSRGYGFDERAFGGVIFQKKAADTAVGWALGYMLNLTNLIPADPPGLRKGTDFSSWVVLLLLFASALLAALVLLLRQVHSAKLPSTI

[3] = molecular target: hP2Y2 (Homo sapiens, UniProt P41231); assay: Inhibition of UTP binding at hP2Y2; settings: read-out: hP2Y2 % inhibition of UTP binding at 100 μM, n = 3, mean ± SEM
Method: (§1) In table 2 inhibition data of selected examples at human P2Y receptor subtypes were collected. It can be seen that no compound was identified that inhibited P2Y receptors at high concentrations of 100 μM and 10 μM, respectively.

[4] = molecular target: hP2Y4 (Homo sapiens, UniProt P51582); assay: Inhibition of UTP binding at hP2Y4; settings: read-out: hP2Y4 % inhibition of UTP binding at 100 μM, n = 3, mean ± SEM
Method: as §1

[5] = molecular target: rP2Y6 (Rattus norvegicus, UniProt Q63371); assay: Inhibition of UDP binding at rP2Y6; settings: read-out: rP2Y6 % inhibition of UDP binding at 100 μM, n = 3, mean ± SEM
[6] = molecular target: hP2Y12 (Homo sapiens, UniProt Q9H244); assay: Inhibition of [3H]PSB-0413 binding at hP2Y12; settings: mean ± SEM, read-out: hP2Y12 % Inhibition of [^3H]PSB-0413 Binding at 10 μM, n = 3
Method: as §1

[7] = molecular target: T3, rat ecto-5′-nucleotidase (Rattus norvegicus, UniProt P21588); assay: Ecto-5′-nucleotidase assay by capillary electrophoresis (CE); type: biochemical; settings: CE method, read-out: Rat Ecto-5′-NT Ki [μM] ± SEM
T3 construct: Catalytically active recombinant soluble glutathione-S-transferase/ecto-5′-nucleotidase fusion protein; GST (glutathione-S-transferase); made in house; host or cells: insect cells, baculovirus system
T3 sequence (P21588 29-551 limits assumed): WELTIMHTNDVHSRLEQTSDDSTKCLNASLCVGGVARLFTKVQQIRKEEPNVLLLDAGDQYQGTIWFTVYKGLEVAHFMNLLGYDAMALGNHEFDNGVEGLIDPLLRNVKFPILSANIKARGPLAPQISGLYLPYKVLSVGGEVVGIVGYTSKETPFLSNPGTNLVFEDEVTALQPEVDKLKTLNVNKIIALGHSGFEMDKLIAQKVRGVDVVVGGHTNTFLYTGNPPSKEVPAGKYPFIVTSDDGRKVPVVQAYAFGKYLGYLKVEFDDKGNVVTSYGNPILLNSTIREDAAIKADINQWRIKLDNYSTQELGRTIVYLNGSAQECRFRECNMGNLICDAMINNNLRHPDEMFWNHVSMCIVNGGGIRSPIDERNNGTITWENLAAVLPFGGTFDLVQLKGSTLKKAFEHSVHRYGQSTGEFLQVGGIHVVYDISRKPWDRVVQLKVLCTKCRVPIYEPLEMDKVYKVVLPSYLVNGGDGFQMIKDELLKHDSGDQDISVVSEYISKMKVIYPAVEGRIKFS
Method: Catalytically active recombinant soluble glutathione-S-transferase/ecto-5′-nucleotidase fusion protein was expressed in insect cells using the baculovirus system and purified by affinity chromatography using agarose-coupled GSH as previously described [Servos, J., Reilander, H., Zimmermann, H. Drug. Dev. Res. 1998, 45, 269-276]
Enzyme assays were carried out at 37° C. in a final volume of 100 μl. The reaction buffer consisted of 10 mM Hepes (2.38 g/L), 2 mM MgCl2 […], and 1 mM CaCl2 (0.11 g/L), brought to pH 7.4 by adding the appropriate amount of 1-N aqueous HCl solution. The reaction was initiated by the addition of 10 μl of the appropriately diluted enzyme (0.52 μg). The reaction mixture was incubated for 10 min and terminated by heating at 99° C. for 5 min. Nucleosides and nucleotides were stable under these conditions. Aliquots of the reaction mixture (50 μl) were then transferred to mini-CE vials containing 50 μl of the internal standard uridine (final concentration 20 μM). In the absence of an internal standard similar results were obtained. Each analysis was repeated twice (duplicates) in three separate experiments.
CE separations were carried out using a P/ACE MDQ system (Beckman Coulter Instruments, Fullerton, Calif., USA) equipped with a DAD detection system. The electrophoretic separations were carried out using an eCAP fused-silica capillary [30 cm (20 cm effective length)×75 μm internal diameter (I.D), ×375 μm outside diameter (O.D) obtained from Beckman Coulter]. The following conditions were applied: T=25° C., λmax=260 nm, voltage=15 kV, running buffer 40 mM sodium borate buffer, pH 9.1. The capillary was washed with 0.1 M NaOH for 2 min, deionized water for 1 min, and running buffer for 1 min before each injection. Injections were made by applying 0.1 psi of pressure to the sample solution for 30 s. The amount of adenosine formed was determined. The CE instrument was fully controlled through a personal computer, which operated with the analysis software 32 KARAT obtained from Beckman Coulter. Electropherograms were evaluated using the same software.

Sequence of hP2Y2 (P41231 whole entry): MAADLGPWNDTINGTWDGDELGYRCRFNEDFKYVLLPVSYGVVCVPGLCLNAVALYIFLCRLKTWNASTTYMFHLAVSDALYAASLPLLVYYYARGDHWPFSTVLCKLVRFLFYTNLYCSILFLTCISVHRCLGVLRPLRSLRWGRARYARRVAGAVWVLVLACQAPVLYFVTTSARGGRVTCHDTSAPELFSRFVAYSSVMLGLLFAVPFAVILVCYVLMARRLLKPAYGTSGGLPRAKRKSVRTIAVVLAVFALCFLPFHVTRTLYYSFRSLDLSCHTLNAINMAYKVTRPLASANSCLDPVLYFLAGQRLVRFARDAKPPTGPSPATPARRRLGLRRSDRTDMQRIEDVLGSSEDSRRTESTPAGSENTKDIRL
Sequence of hP2Y12 (Q9H244 whole entry): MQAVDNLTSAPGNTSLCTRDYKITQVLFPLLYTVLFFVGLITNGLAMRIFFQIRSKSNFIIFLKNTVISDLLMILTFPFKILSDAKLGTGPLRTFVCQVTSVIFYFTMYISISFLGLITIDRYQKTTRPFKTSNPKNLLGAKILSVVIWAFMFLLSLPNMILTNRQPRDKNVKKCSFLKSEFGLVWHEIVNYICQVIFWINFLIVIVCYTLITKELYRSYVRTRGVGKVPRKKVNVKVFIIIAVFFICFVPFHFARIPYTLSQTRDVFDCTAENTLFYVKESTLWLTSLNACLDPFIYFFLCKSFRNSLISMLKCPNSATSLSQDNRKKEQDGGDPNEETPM
Sequence of rP2Y6 (Q63371 whole entry): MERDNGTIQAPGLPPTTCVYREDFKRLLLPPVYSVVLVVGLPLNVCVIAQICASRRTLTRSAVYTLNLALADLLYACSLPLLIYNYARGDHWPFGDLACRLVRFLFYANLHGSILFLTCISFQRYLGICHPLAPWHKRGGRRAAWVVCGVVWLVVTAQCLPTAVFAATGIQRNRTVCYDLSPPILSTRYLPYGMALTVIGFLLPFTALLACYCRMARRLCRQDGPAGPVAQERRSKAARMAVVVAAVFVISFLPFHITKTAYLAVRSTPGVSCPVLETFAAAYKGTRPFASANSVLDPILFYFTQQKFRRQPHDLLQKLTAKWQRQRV
Sequence of hP2Y4 (P51582 whole entry): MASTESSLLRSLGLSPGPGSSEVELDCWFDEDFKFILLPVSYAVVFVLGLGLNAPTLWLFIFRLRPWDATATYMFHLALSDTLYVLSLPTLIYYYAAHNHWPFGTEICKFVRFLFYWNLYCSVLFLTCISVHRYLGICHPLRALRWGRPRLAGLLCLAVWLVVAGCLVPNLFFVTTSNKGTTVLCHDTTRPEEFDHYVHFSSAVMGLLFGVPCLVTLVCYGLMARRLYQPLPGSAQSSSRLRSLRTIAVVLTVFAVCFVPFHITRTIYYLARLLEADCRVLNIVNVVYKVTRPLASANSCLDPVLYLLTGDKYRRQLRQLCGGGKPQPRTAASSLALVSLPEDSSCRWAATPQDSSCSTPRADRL

SMILES	Ki [1]	Ki [7]	also measured
CCOP(=O)(OCC)C(NC(=O)CCCNC(=O)[C@H]1O[C@@H](n2ccc(=O)[nH]c2=O)C(O)C1O)P(=O)(OCC)OCC (stereo in doubt) [Compound 12, 4-[(2S,3R,4S,5R)-5-(2,4-Dioxo-3,4-dihydropyrimidin-1(2H)-yl)-3,4-dihydroxytetrahydrofurane-2-carboxamido]butaneamidomethylenediphosphonic acid tetraethylester]	32.4 ± 1.1 µM		Ki [2]: ~165 µM; inhibition at 1000 µM ([2]; read-out: NTPDase2 inhibition (%) at 1 mM): 54%; inhibition at 100 µM [3]: -44 ± 20%; inhibition at 100 µM [4]: 27 ± 7%; inhibition at 100 µM [5]: 18 ± 4%; inhibition at 10 µM [6]: 1 ± 5%
O=C(O)CC[C@H](NC(=O)CNC(=O)[C@H]1O[C@@H](N2CCC(=O)NC2=O)[C@H](O)[C@@H]1O)C(=O)O [Compound 24, 2-[2-((2S,3R,4S,5R)-5-(2,4-Dioxo-3,4,5,6-dihydropyrimidine-1(2H)-yl)-3,4-dihydroxy-tetrahydrofurane-2-carboxamido)ethaneamido]-(S)-glutamic acid]		34.3 ± 0.2 µM	
O=C(O)CCC(NC(=O)CCNC(=O)[C@H]1O[C@@H](N2CCC(=O)NC2=O)[C@H](O)[C@@H]1O)C(=O)O (stereo partly drawn) [Compound 14, 2-[3-((2S,3R,4S,5R)-5-(2,4-Dioxo-3,4,5,6-tetrahydropyrimidin-1(2H)-yl)-3,4-dihydroxy-tetrahydrofurane-2-carboxamido)propaneamido]-(S)-glutamic acid]	10.8 ± 1 µM	0.78 ± 0.18 µM	inhibition at 10 µM [6]: 6 ± 4%
CCOC(=O)C(CC(=O)O)NC(=O)CCCNC(=O)[C@H]1O[C@@H](n2ccc(=O)[nH]c2=O)[C@H](O)[C@@H]1O (stereo partly drawn) [Compound 15, 2-[4-((2S,3R,4S,5R)-5-(2,4-Dioxo-3,4-dihydropyrimidin-1(2H)-yl)-3,4-dihydroxy-tetrahydrofurane-2-carboxamido)butaneamido]-(S)-aspartic acid-1-ethylester]	29 ± 4 µM		inhibition at 100 µM [3]: -28 ± 11%
Cc1cn([C@@H]2O[C@H](C(=O)NCCCC(=O)NC(CC(=O)O)C(=O)O)[C@@H](O)[C@H]2O)c(=O)[nH]c1=O (stereo partly drawn) [Compound 25, 2-[4-((2S,3R,4S,5R)-5-(2,4-Dioxo-5-methylpyrimidin-1(2H)-yl)-3,4-dihydroxy-tetrahydrofurane-2-carboxamido)butaneamido]-(S)-aspartic acid]		1.61 ± 0.62 µM	
O=C(O)C[C@H](NC(=O)CCCNC(=O)[C@H]1O[C@@H](N2CCC(=O)NC2=O)[C@H](O)[C@@H]1O)C(=O)O [Compound 23, 2-[4-((2S,3R,4S,5R)-5-(2,4-Dioxo-3,4,5,6-tetrahydropyrimidine-1(2H)-yl)-3,4-dihydroxy-tetrahydrofurane-2-carboxamido)butaneamido]-(S)-aspartic acid]		0.18 ± 0.014 µM	
O=C(CNC(=O)[C@H]1O[C@@H](n2ccc(=O)[nH]c2=O)C(O)C1O)Nc1ccc(CP(=O)(O)O)cc1 (stereo in doubt) [Compound 21, 4-[2-((2S,3R,4S,5R)-5-(2,4-Dioxo-3,4-dihydropyrimidine-1(2H)-yl)-3,4-dihydroxy-tetrahydrofurane-2-carboxamido)ethaneamido]benzylphosphonic acid]		6.47 ± 1.31 µM	
